Test: xn = mol fraction of the nth substance listed

C=CC(=O)OC + CCCO
viscosity [mPa·s], 101.33 kPa
Conditions	308.15 K	318.15 K
x1 = 0.0501	1.354	1.107
x1 = 0.1464	1.081	0.916
x1 = 0.2331	0.9	0.782
x1 = 0.3469	0.727	0.648
x1 = 0.4436	0.622	0.561
x1 = 0.5011	0.572	0.519
x1 = 0.5436	0.541	0.492
x1 = 0.6429	0.483	0.439
x1 = 0.7442	0.441	0.397
x1 = 0.8449	0.413	0.365
x1 = 0.9424	0.396	0.343

Cc1ccccc1O + C1CCCCC1
308.15 K, 101 kPa
Conditions	viscosity [mPa·s]
x1 = 0.0821	0.8505
x1 = 0.1618	0.9431
x1 = 0.2824	1.146
x1 = 0.3677	1.341
x1 = 0.4418	1.568
x1 = 0.5033	1.708
x1 = 0.5871	2.049
x1 = 0.7934	3.199
x1 = 0.8996	4.104

O=C(O)CO + O=C(O)[C@@H]1CCCN1
323 K, 100 kPa
Conditions	viscosity [mPa·s]
x2 = 0.25	480
x2 = 0.338	1340
x2 = 0.504	8080

CCCC=O + CCO
298.1 K, 101 kPa
Conditions	viscosity [mPa·s]
x1 = 0.1009	1.261
x1 = 0.1952	1.413
x1 = 0.3034	1.484
x1 = 0.3333	1.463
x1 = 0.3989	1.366
x1 = 0.5109	1.103
x1 = 0.5976	0.896
x1 = 0.7003	0.7
x1 = 0.7924	0.564
x1 = 0.8988	0.468

C1CCC2=[NH+]CCCN2CC1.c1nc[n-]n1 + CO
303.15 K, 100 kPa
Conditions	viscosity [mPa·s]
x1 = 0.1001	5.23
x1 = 0.2	8.57
x1 = 0.2999	24.53
x1 = 0.4003	57.03
x1 = 0.4989	104.5
x1 = 0.6002	205.4
x1 = 0.7008	366.4
x1 = 0.7993	555.9
x1 = 0.9002	882.9

CCCCCC + CC(C)O
viscosity [mPa·s], 101 kPa
Conditions	298.15 K	308.15 K
x2 = 0.0486	0.318	0.26
x2 = 0.1046	0.326	0.268
x2 = 0.1633	0.334	0.276
x2 = 0.272	0.364	0.31
x2 = 0.3138	0.377	0.33
x2 = 0.3636	0.399	0.36
x2 = 0.4036	0.42	0.382
x2 = 0.5026	0.496	0.451
x2 = 0.563	0.557	0.508
x2 = 0.6074	0.613	0.561
x2 = 0.6996	0.763	0.694
x2 = 0.8182	1.06	0.934
x2 = 0.9038	1.4	1.237
x2 = 0.9566	1.723	1.379

C=CC(=O)OCCCC + c1ccccc1
viscosity [mPa·s], 101 kPa
Conditions	x2 = 0.1282	x2 = 0.2182	x2 = 0.2926	x2 = 0.4108	x2 = 0.4964	x2 = 0.5923	x2 = 0.708	x2 = 0.7944	x2 = 0.9032
298.15 K	0.799	0.773	0.749	0.719	0.699	0.679	0.658	0.641	0.62
303.15 K	0.738	0.709	0.686	0.656	0.636	0.618	0.601	0.59	0.574
308.15 K	0.683	0.649	0.625	0.595	0.576	0.564	0.554	0.545	0.531
313.15 K	0.62	0.585	0.565	0.538	0.524	0.51	0.501	0.496	0.485

Cc1ccccc1O + Cc1ccccc1
308.15 K, 101 kPa
Conditions	viscosity [mPa·s]
x1 = 0.1491	0.6
x1 = 0.224	0.7051
x1 = 0.307	0.8217
x1 = 0.397	0.9904
x1 = 0.5325	1.332
x1 = 0.6095	1.604
x1 = 0.6968	2.034
x1 = 0.7755	2.544
x1 = 0.87	3.369

CC(C)CO + Cc1ccc(C)cc1
308.15 K, 101 kPa
Conditions	viscosity [mPa·s]
x1 = 0.0452	0.549
x1 = 0.1043	0.562
x1 = 0.1908	0.595
x1 = 0.3019	0.649
x1 = 0.3823	0.697
x1 = 0.4859	0.775
x1 = 0.6097	0.969
x1 = 0.7046	1.218
x1 = 0.8071	1.487
x1 = 0.8948	1.856
x1 = 0.9585	2.247
